Reference: patent US8143068B2, “Oxidation resistant indicator molecules” (Sensors for Medicine and Science, Inc., priority 2006, dated 2012)
Read-outs that look alike come from different tables or passages of the source.

Tests used:
[1] = aqueous association with glucose; cited from earlier work
[2] = Stability of indicator gels towards oxidant: 1 mM hydrogen peroxide in PBS at 37° C.; assay type: physicochemical; conditions: indicator gel
Method: Several compounds of the present invention were each copolymerized with hydroxyethyl methacrylate (HEMA), acrylic acid and ethylene glycol dimethacrylate (EGDMA) to form water insoluble polymer gels, as in Example 3. Their stability towards oxidant was assessed by subjecting the gels to 1 mM hydrogen peroxide in PBS at 37° C. […] In a further experiment, the fluorescent change (% modulation) from 0 to 20 mM glucose of various indicator gels was measured and the results are shown in FIG. 8.

[3] = Modulation of fluorescence by varying concentrations of glucose (Example 1, FIG. 1)
Method: The modulation of the fluorescence of various molecules (depicted in FIG. 5) by varying concentrations of glucose was determined. […] In a further experiment, the unsubstituted control and two compounds of the present invention (4-trifluoromethyl and 3,4-difluoro) were subjected to oxidation treatment with 1 mM hydrogen peroxide, and the loss of fluorescence intensity was measured.

[4] = Fluorescence and glucose response of indicator gels (Table 1); assay type: binding; conditions: indicator gel; for Kd: 37° C.
[5] = Long term exposure of indicator gels to 10 μM hydrogen peroxide and 4 mM glucose/PBS at 37° C., loss of fluorescence intensity; assay type: physicochemical; conditions: indicator gel
Method: Several gels (produced as in Example 3) containing compounds of the present invention (4-trifluoromethyl, 3,4-difluoro and 4-fluoro) and a control (unsubstituted) were subjected to long term exposure to 10 μM hydrogen peroxide and 4 mM glucose/PBS at 37° C., and the loss of fluorescence intensity was measured.
Two compounds according to the present invention (4-trifluoromethyl and 3,4-difluoro) and the unsubstituted control were each copolymerized with hydroxyethyl methacrylate (HEMA) and acrylic acid, and crosslinked with ethylene glycol dimethacrylate (EGDMA) to form a water insoluble polymer graft, which was then implanted into a rat to be subjected to in vivo oxidation for 22 or 43 days.

[6] = Stability of indicator gels in 1 mM hydrogen peroxide in the presence of 4 mM glucose in PBS at 37° C.; assay type: physicochemical; conditions: indicator gel
Method: Several compounds of the present invention were each copolymerized with hydroxyethyl methacrylate (HEMA), acrylic acid and ethylene glycol dimethacrylate (EGDMA) to form water insoluble polymer gels, as in Example 3. Their stability towards oxidant was assessed by subjecting the gels to 1 mM hydrogen peroxide in PBS at 37° C. In a further experiment, two of the indicator gels (the 4-trifluoromethyl and 4-trifluoromethylsulfone gels) were subjected to 1 mM hydrogen peroxide in the presence of 4 mM glucose in PBS at 37° C. In a further experiment, the fluorescent change (% modulation) from 0 to 20 mM glucose of various indicator gels was measured and the results are shown in FIG. 8.

Row | t 1/2 [2] | Compound | further results
1 | 17 min | 9-[N-[6-(4,4,5,5,-tetramethyl-1,3,2-dioxaborolano)-3-(trifluoromethyl)benzyl]-N-[3-(methacrylamido)propylamino]methyl]-10-[N-[6-(4,4,5,5,-tetramethyl-1,3,2-dioxaborolano)-3-(trifluoromethyl)benzyl]-N-[2-(carboxyethyl)amino]methyl]anthracene sodium salt [4-Trifluoromethyl] | AVERAGE % MODULATION (0 to 20 mM glucose) [4]: 191%; Kd [4]: 12.2 mM; HALF LIFE (days) at 37° C. in 4 mM glucose and 10 μM H2O2 [5]: 26 days; t 1/2 (minutes), in 4 mM Glucose Solution [6]: 30 min
2 | 13 min | 9-[N-[6-(4,4,5,5,-tetramethyl-1,3,2-dioxaborolano)-2,3-difluorobenzyl]-N-[3-(methacrylamido)propylamino]methyl]-10-[N-[6-(4,4,5,5,-tetramethyl-1,3,2-dioxaborolano)-2,3-difluorobenzyl]-N-[2-(carboxyethyl)amino]methyl]anthracene sodium salt [3,4-Difluoro] | AVERAGE % MODULATION (0 to 20 mM glucose) [4]: 137%; Kd [4]: 30.9 mM; HALF LIFE (days) at 37° C. in 4 mM glucose and 10 μM H2O2 [5]: 33 days
3 | 495 min | 9-[N-[6-(4,4,5,5,-tetramethyl-1,3,2-dioxaborolano)-2,4-bis(trifluoromethyl)benzyl]-N-[3-(methacrylamido)propylamino]methyl]-10-[N-[6-(4,4,5,5,-tetramethyl-1,3,2-dioxaborolano)-2,4-bis(trifluoromethyl)benzyl]-N-[2-(carboxyethyl)amino]-methyl]anthracene sodium salt [3,5-Bis(trifluoromethyl)] | –
4 | 24 min | 9-[N-[2-(4,4,5,5,-tetramethyl-1,3,2-dioxaborolano)-4-(trifluoromethyl)benzyl]-N-[3-(methacrylamido)propylamino]methyl]-10-[N-[2-(4,4,5,5-tetra-methyl-1,3,2-dioxaborolano)-4-(trifluoromethyl)benzyl]-N-[2-(carboxyethyl)amino]methyl]-anthracene sodium salt [5-Trifluoromethyl] | –
5 | 22 min | 9-[N-[6-(4,4,5,5,-tetramethyl-1,3,2-dioxaborolano)-2,4-(dichloro)benzyl]-N-[3-(methacrylamido)propylamino]methyl]-10-[N-[6-(4,4,5,5,-tetramethyl-1,3,2-dioxaborolano)-2,4-(dichloro)benzyl]-N-[2-(carboxyethyl)amino]-methyl]anthracene sodium salt [3,5-Dichloro] | –
6 | 32 min | 9-[N-[6-(4,4,5,5,-tetramethyl-1,3,2-dioxaborolano)-2,3-dichlorobenzyl]-N-[3-(methacrylamido)propylamino]methyl]-10-[N-[6-(4,4,5,5,-tetramethyl-1,3,2-dioxaborolano)-2,3-dichlorobenzyl]-N-[2-(carboxyethyl)amino]methyl]anthracene sodium salt [3,4-Dichloro] | –
7 | 6 min | C=C(C)C(=O)NCCCN(Cc1ccc(F)cc1B1OC(C)(C)C(C)(C)O1)Cc1c2ccccc2c(CN(CCC(=O)[O-])Cc2ccc(F)cc2B2OC(C)(C)C(C)(C)O2)c2ccccc12.[Na+] [Indicator 5-Fluoro, 9-[N-[2-(4,4,5,5,-tetramethyl-1,3,2-dioxaborolano)-4-fluorobenzyl]-N-[3-(methacrylamido)propylamino]methyl]-10-[N-[2-(4,4,5,5,-tetramethyl-1,3,2-dioxaborolano)-4-fluorobenzyl]-N-[2-(carboxyethyl)amino]methyl]anthracene sodium salt] | –

The next lines start with the compound.

Row | Compound | t 1/2 [2] | further results
8 | OB(O)c1ccccc1 [phenylboronic acid] | – | Kd [1]: 9.1 mM
9 | C=C(C)C(=O)NCCCN(Cc1cc(OC(F)(F)F)ccc1B1OC(C)(C)C(C)(C)O1)Cc1c2ccccc2c(CN(CCC(=O)[O-])Cc2cc(OC(F)(F)F)ccc2B2OC(C)(C)C(C)(C)O2)c2ccccc12.[Na+] [4-Trifluoromethoxy, 9-[N-[6-(4,4,5,5,-tetramethyl-1,3,2-dioxaborolano)-3-(trifluoromethoxy)benzyl]-N-[3-(methacrylamido)propylamino]methyl]-10-[N-[6-(4,4,5,5-tetra-methyl-1,3,2-dioxaborolano)-3-(trifluoromethoxy)benzyl]-N-[2-(carboxyethyl)amino]methyl]-anthracene sodium salt] | 24 min | –
10 | C=C(C)C(=O)NCCCN(Cc1cc([N+](=O)[O-])ccc1B1OC(C)(C)C(C)(C)O1)Cc1c2ccccc2c(CN(CCC(=O)[O-])Cc2cc([N+](=O)[O-])ccc2B2OC(C)(C)C(C)(C)O2)c2ccccc12.[Na+] [Indicator 4-Nitro, 9-[N-[6-(4,4,5,5,-tetramethyl-1,3,2-dioxaborolano)-3-nitrobenzyl]-N-[3-(methacrylamido)propylamino]methyl]-10-[N-[6-(4,4,5,5,-tetramethyl-1,3,2-dioxaborolano)-3-nitrobenzyl]-N-[2-(carboxyethyl)amino]methyl]anthracene sodium salt] | – | modulation of the fluorescence by glucose [3]: did not modulate well
11 | 9-[N-[2-(4,4,5,5,-tetramethyl-1,3,2-dioxaborolano)-3-methylbenzyl]-N-[3-(methacrylamido)propylamino]methyl]-10-[N-[2-(4,4,5,5,-tetramethyl-1,3,2-dioxaborolano)-3-methylbenzyl]-N-[2-(carboxyethyl)amino]methyl]anthracene [Indicator 2-Methyl] | – | modulation of the fluorescence by glucose [3]: did not modulate well
12 | 9-[N-[6-(4,4,5,5,-tetramethyl-1,3,2-dioxaborolano)-3-cyanobenzyl]-N-[3-(methacrylamido)propylamino]methyl]-10-[N-[6-(4,4,5,5,-tetramethyl-1,3,2-dioxaborolano)-3-cyanobenzyl]-N-[2-(carboxyethyl)amino]methyl]anthracene sodium salt [Indicator 4-Cyano] | 18 min | –
13 | 9-[N-[6-(4,4,5,5,-tetramethyl-1,3,2-dioxaborolano)-3-fluorobenzyl]-N-[3-(methacrylamido)propylamino]methyl]-10-[N-[6-(4,4,5,5,-tetramethyl-1,3,2-dioxaborolano)-3-fluorobenzyl]-N-[2-(carboxyethyl)amino]methyl]anthracene sodium salt [Indicator 4-Fluoro] | 13 min | –
